Assay results reported in ChEMBL document CHEMBL1201862, “PubChem BioAssay data set” (2004).
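Exposure lasted 48 hours, with cells grown in 96-well plates and compounds tested at five concentrations. At the GI50, growth is halved.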 Active and inactive are the calls of the source. No stated cut-off is given here; in the data, active = GI50 up to about 1.1 µM and inactive = higher.

Legend:
Test in all cases: growth of human tumour cells (NCI), 48 h
KM-20L2 = test system: KM-20L2
UO-31 = test system: UO-31
XF498 = test system: XF498
TK-10 = test system: TK-10
SNB-78 = test system: SNB-78
KM12 = test system: KM12
SNB-75 = test system: SNB-75
LOX IMVI = test system: LOX IMVI
RPMI-8226 = test system: RPMI-8226
RXF 631 = test system: RXF 631
NCI-H226 = test system: NCI-H226
SN12C = test system: SN12C
HL-60 = test system: HL-60
DMS-114 = test system: DMS-114
SF-295 = test system: SF-295
OVCAR-4 = test system: OVCAR-4
OVCAR-5 = test system: OVCAR-5
MOLT-4 = test system: MOLT-4
UACC-62 = test system: UACC-62
SK-MEL-28 = test system: SK-MEL-28
RXF 393 = test system: RXF 393
NCI-H23 = test system: NCI-H23
SW-620 = test system: SW-620
SR = test system: SR
LXFL 529 = test system: LXFL 529
NCI-H460 = test system: NCI-H460
NCI-H522 = test system: NCI-H522
CAKI-1 = test system: CAKI-1
SK-OV-3 = test system: SK-OV-3
SNB-19 = test system: SNB-19
Malme-3M = test system: Malme-3M
DLD-1 = test system: DLD-1
ACHN = test system: ACHN
M19-MEL = test system: M19-MEL
SK-MEL-5 = test system: SK-MEL-5
EKVX = test system: EKVX
HCC 2998 = test system: HCC 2998
M14 = test system: M14
OVCAR-3 = test system: OVCAR-3
HT-29 = test system: HT-29
SF-539 = test system: SF-539
HOP-62 = test system: HOP-62
U-251 = test system: U-251
A498 = test system: A498
HCT-116 = test system: HCT-116
SK-MEL-2 = test system: SK-MEL-2
786-0 = test system: 786-0
A549 = test system: A549
K562 = test system: K562
HCT-15 = test system: HCT-15
OVCAR-8 = test system: OVCAR-8
IGROV-1 = test system: IGROV-1
HOP-92 = test system: HOP-92
SF-268 = test system: SF-268
CCRF-CEM = test system: CCRF-CEM
COLO 205 = test system: COLO 205
UACC-257 = test system: UACC-257

For `CC(=O)N/C(=C\c1cccc([N+](=O)[O-])c1)c1nc2ccc3c(c2[nH]1)C(=O)c1ccccc1C3=O`, the GI50 (KM-20L2) was > 100 µM (inactive), the GI50 (UO-31) was 3.62 µM (inactive) and the GI50 (XF498) was 52.5 µM (inactive). The GI50 (TK-10) was > 56 µM (inactive), the GI50 (SNB-78) was > 57.9 µM (inactive) and the GI50 (KM12) was 7.57 µM (inactive). For the same molecule, the GI50 (SNB-75) was 21.3 µM (inactive), the GI50 (LOX IMVI) was 13.3 µM (inactive) and the GI50 (RPMI-8226) was 5.04 µM (inactive). The GI50 (RXF 631) was 32.6 µM (inactive), the GI50 (NCI-H226) was > 100 µM (inactive) and the GI50 (SN12C) was 21 µM (inactive). The GI50 (HL-60) was 2.76 µM (inactive), the GI50 (DMS-114) was > 37.5 µM (inactive) and the GI50 (SF-295) was > 100 µM (inactive). For the same molecule, the GI50 (OVCAR-4) was > 65.9 µM (inactive), the GI50 (OVCAR-5) was > 93.3 µM (inactive) and the GI50 (MOLT-4) was 8.04 µM (inactive). For the same molecule, the GI50 (UACC-62) was > 49.8 µM (inactive), the GI50 (SK-MEL-28) was > 100 µM (inactive) and the GI50 (RXF 393) was 22.8 µM (inactive). The GI50 (NCI-H23) was 39.8 µM (inactive), the GI50 (SW-620) was 31.9 µM (inactive) and the GI50 (SR) was 6.97 µM (inactive). For the same molecule, the GI50 (LXFL 529) was 29.3 µM (inactive), the GI50 (NCI-H460) was 27.2 µM (inactive) and the GI50 (NCI-H522) was 9.89 µM (inactive). For the same molecule, the GI50 (CAKI-1) was 11.7 µM (inactive), the GI50 (SK-OV-3) was 13.6 µM (inactive) and the GI50 (SNB-19) was > 100 µM (inactive). The GI50 (Malme-3M) was > 74.8 µM (inactive), the GI50 (DLD-1) was 12.2 µM (inactive) and the GI50 (ACHN) was 4.37 µM (inactive). The GI50 (M19-MEL) was > 100 µM (inactive), the GI50 (SK-MEL-5) was > 79.6 µM (inactive) and the GI50 (EKVX) was 12.7 µM (inactive). For the same molecule, the GI50 (HCC 2998) was > 100 µM (inactive), the GI50 (M14) was 70.3 µM (inactive) and the GI50 (OVCAR-3) was > 100 µM (inactive). For the same molecule, the GI50 (HT-29) was > 100 µM (inactive), the GI50 (SF-539) was 42 µM (inactive) and the GI50 (HOP-62) was 78 µM (inactive). The GI50 (U-251) was 45.6 µM (inactive), the GI50 (A498) was 22.8 µM (inactive) and the GI50 (HCT-116) was 17.9 µM (inactive). For the same molecule, the GI50 (SK-MEL-2) was 50.2 µM (inactive), the GI50 (786-0) was 27.2 µM (inactive) and the GI50 (A549) was 26.6 µM (inactive). For the same molecule, the GI50 (K562) was 23.9 µM (inactive), the GI50 (HCT-15) was 13.9 µM and the GI50 (OVCAR-8) was 43.6 µM (inactive). For the same molecule, the GI50 (IGROV-1) was 10.4 µM (inactive), the GI50 (HOP-92) was > 50.4 µM (inactive) and the GI50 (SF-268) was 13.6 µM (inactive). For the same molecule, the GI50 (CCRF-CEM) was 0.885 µM (active) and the GI50 (COLO 205) was > 78.2 µM (inactive).
For `NNC(=S)N/N=C/C(=C/Nc1ccccc1)[N+](=O)[O-]`, the GI50 (KM-20L2) was > 100 µM (inactive), the GI50 (XF498) was > 100 µM (inactive) and the GI50 (TK-10) was > 100 µM (inactive). The GI50 (SNB-75) was > 100 µM (inactive), the GI50 (LOX IMVI) was > 100 µM (inactive) and the GI50 (RPMI-8226) was > 100 µM (inactive). For the same molecule, the GI50 (RXF 631) was > 100 µM (inactive), the GI50 (NCI-H226) was > 100 µM (inactive) and the GI50 (SN12C) was > 100 µM (inactive). For the same molecule, the GI50 (HL-60) was > 100 µM (inactive), the GI50 (DMS-114) was > 100 µM (inactive) and the GI50 (SF-295) was > 100 µM (inactive). For the same molecule, the GI50 (OVCAR-4) was > 100 µM (inactive), the GI50 (OVCAR-5) was > 100 µM (inactive) and the GI50 (UACC-62) was > 100 µM (inactive). For the same molecule, the GI50 (SK-MEL-28) was > 100 µM (inactive), the GI50 (RXF 393) was > 100 µM (inactive) and the GI50 (NCI-H23) was > 100 µM (inactive). The GI50 (SW-620) was > 100 µM (inactive), the GI50 (UACC-257) was > 100 µM (inactive) and the GI50 (SR) was 1 µM (active). The GI50 (LXFL 529) was > 100 µM (inactive), the GI50 (NCI-H522) was > 100 µM (inactive) and the GI50 (CAKI-1) was > 100 µM (inactive). For the same molecule, the GI50 (SK-OV-3) was > 100 µM (inactive), the GI50 (SNB-19) was > 100 µM (inactive) and the GI50 (Malme-3M) was > 100 µM (inactive). The GI50 (DLD-1) was > 100 µM (inactive), the GI50 (ACHN) was > 100 µM (inactive) and the GI50 (M19-MEL) was > 100 µM (inactive). The GI50 (EKVX) was > 100 µM (inactive), the GI50 (HCC 2998) was > 100 µM (inactive) and the GI50 (M14) was > 100 µM (inactive). For the same molecule, the GI50 (OVCAR-3) was > 100 µM (inactive), the GI50 (HT-29) was > 100 µM (inactive) and the GI50 (SF-539) was > 100 µM (inactive). For the same molecule, the GI50 (HOP-62) was > 100 µM (inactive), the GI50 (HCT-116) was > 100 µM (inactive) and the GI50 (SK-MEL-2) was > 100 µM (inactive). The GI50 (786-0) was > 100 µM (inactive), the GI50 (A549) was > 100 µM (inactive) and the GI50 (K562) was 10 µM (inactive). For the same molecule, the GI50 (OVCAR-8) was > 100 µM (inactive), the GI50 (IGROV-1) was > 100 µM (inactive) and the GI50 (HOP-92) was > 100 µM (inactive). For the same molecule, the GI50 (SF-268) was > 100 µM (inactive) and the GI50 (COLO 205) was > 100 µM (inactive).
